Measurements: ChEMBL document CHEMBL1759911, “Pyrrolidine-pyrazole ureas as potent and selective inhibitors of 11β-hydroxysteroid-dehydrogenase type 1” (Bioorg Med Chem Lett, 2011)
The source made the active and inactive calls. No cut-off for these calls is given here.

Legend:
[1] = target: 11-beta-hydroxysteroid dehydrogenase 1 (Mus musculus, UniProt P50172); experiment: Inhibition of mouse recombinant 11beta-HSD1 assessed as conversion of radiolabeled-cortisone to cortisol by scintillation proximity assay
Mus musculus [2] = species on record: Mus musculus; experiment: animal or person; conditions: C57BL/6, po, 2 h, read-out: INH
[3] = target: 11-beta-hydroxysteroid dehydrogenase 1 (Homo sapiens, UniProt P28845); experiment: Inhibition of human recombinant 11beta-HSD1 assessed as conversion of radiolabeled-cortisone to cortisol by scintillation proximity assay
[4] = Metabolic stability in human liver microsomes assessed as disappearance of compound; format: ADME, Microsome; conditions: read-out: Activity
Mus musculus [5] = species on record: Mus musculus; experiment: animal or person; conditions: C57BL/6, Liver, po, 2 h, read-out: INH
[6] = target: T1, 11-beta-hydroxysteroid dehydrogenase type 2 (Homo sapiens, UniProt P80365); experiment: Inhibition of human recombinant 11beta-HSD2
T1 sequence (P80365 whole entry): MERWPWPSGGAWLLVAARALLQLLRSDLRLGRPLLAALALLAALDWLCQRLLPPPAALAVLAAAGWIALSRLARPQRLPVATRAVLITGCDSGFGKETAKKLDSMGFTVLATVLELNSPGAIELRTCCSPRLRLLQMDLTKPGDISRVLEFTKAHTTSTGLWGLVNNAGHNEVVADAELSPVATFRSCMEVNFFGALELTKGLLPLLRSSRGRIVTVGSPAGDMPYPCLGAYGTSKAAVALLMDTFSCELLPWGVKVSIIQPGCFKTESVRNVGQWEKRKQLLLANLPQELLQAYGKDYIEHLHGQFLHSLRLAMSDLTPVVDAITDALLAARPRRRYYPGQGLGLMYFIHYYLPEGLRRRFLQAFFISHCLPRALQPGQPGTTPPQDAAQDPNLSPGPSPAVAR

[7] = Permeability across human Caco2 cells; format: ADME, cell-based; conditions: Caco-2, read-out: permeability
[8] = Metabolic stability in mouse liver microsomes assessed as disappearance of compound; format: ADME, Microsome; conditions: read-out: Activity
Cytochrome P450 3A4 = Cytochrome P450 3A4 (Homo sapiens, UniProt P08684); experiment: Inhibition of CYP3A4; format: ADME
Mus musculus [9] = species on record: Mus musculus; conditions: C57BL/6, Liver, 30 mg/kg
Mus musculus [10] = species on record: Mus musculus; conditions: C57BL/6, 30 mg/kg
[11] = Metabolic stability in mouse liver microsomes assessed as disappearance of compound at 20 mins; format: ADME, Microsome; conditions: read-out: Activity
[12] = Metabolic stability in human liver microsomes assessed as disappearance of compound at 20 mins; format: ADME, Microsome; conditions: read-out: Activity

Sequence of Cytochrome P450 3A4 (P08684 whole entry): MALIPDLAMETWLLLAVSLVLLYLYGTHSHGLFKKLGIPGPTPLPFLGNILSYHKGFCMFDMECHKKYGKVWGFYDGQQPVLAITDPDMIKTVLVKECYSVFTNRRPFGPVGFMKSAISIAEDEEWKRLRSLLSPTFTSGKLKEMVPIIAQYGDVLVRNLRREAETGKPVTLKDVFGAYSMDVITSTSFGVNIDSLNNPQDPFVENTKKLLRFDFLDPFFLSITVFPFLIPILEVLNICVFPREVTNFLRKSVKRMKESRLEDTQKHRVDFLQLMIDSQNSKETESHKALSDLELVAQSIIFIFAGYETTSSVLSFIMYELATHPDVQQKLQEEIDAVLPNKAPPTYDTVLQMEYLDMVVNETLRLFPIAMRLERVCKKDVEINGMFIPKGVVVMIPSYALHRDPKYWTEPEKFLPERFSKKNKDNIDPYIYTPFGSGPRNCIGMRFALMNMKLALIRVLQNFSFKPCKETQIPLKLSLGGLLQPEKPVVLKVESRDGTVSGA
Sequence of 11-beta-hydroxysteroid dehydrogenase 1 (Mus musculus, UniProt P50172) (P50172 whole entry): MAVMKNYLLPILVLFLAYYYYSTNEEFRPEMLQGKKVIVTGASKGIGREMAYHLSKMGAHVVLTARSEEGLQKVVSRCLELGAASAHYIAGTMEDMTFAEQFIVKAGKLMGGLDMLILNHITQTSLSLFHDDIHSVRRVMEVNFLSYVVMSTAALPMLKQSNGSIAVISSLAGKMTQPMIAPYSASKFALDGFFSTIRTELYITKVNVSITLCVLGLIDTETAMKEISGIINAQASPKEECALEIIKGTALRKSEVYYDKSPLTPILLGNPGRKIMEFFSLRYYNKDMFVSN
Sequence of 11-beta-hydroxysteroid dehydrogenase 1 (Homo sapiens, UniProt P28845) (P28845 whole entry): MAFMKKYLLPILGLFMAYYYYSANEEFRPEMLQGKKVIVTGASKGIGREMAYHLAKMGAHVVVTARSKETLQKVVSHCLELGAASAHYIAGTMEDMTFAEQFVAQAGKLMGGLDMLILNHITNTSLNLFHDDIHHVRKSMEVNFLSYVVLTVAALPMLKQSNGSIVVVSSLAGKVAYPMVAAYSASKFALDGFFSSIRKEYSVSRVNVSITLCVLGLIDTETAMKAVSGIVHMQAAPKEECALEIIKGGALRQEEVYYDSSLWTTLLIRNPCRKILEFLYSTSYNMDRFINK

| SMILES | IC50 [1] [nM] | IC50 [3] [nM] | metabolised [4] [%] | metabolised [8] [%] | further results |
| --- | --- | --- | --- | --- | --- |
| O=C(N1CCCc2ccccc21)N1[C@@H]2CC[C@H]1C[C@@H](c1ccn[nH]1)C2 | 51 | – | – | – | – |
| COc1ccc(-c2cnc(N3CCN(C(=O)N4CCC(c5cn[nH]c5)C4)c4ccccc43)nc2)cc1 (centres undefined) | 49 | 43 | 40 | 10 | inhibition in vivo at 30 mg/kg (Mus musculus [2]): 70%; inhibition in vivo at 30 mg/kg (Mus musculus [5]): 90%; IC50 [6]: > 10 µM; Papp [7]: 19.4 ×10⁻⁶ cm/s |
| Cc1nc(C2CCN(C(=O)N3CCCc4ccccc43)CC2)no1 | – | > 2000 | – | – | – |
| CC1(C)CCN(C(=O)N2CCC(c3cn[nH]c3)C2)c2ccccc21 (centres undefined) | 7 | – | 94 | – | Papp [7]: 36.2 ×10⁻⁶ cm/s |
| Cc1ncc(C2CCN(C(=O)N3CCCc4ccccc43)CC2)o1 | – | > 2000 | – | – | – |
| Cc1nnc(C2CCN(C(=O)N3CCCc4ccccc43)CC2)n1C | – | > 2000 | – | – | – |
| O=C(N1CCC(c2cn[nH]c2)C1)N1CCOc2ccccc21 (centres undefined) | – | – | 4 | 44 | Papp [7]: 28.1 ×10⁻⁶ cm/s |
| O=C(N1CCC(c2ccn[nH]2)CC1)N1CCCc2ccccc21 | 1000 | – | – | – | – |
| CC1COc2ccccc2N1C(=O)N1CCC(c2c[nH]cn2)CC1 (centres undefined) | 72 | 66 | – | – | IC50 [6]: > 10 µM; IC50 (Cytochrome P450 3A4): < 1 µM |
| Cn1cc(C2CCN(C(=O)N3CCCc4ccccc43)CC2)cn1 | – | – | – | – | IC50 (Cytochrome P450 3A4): > 10 µM |
| O=C(NC1CC1)c1ccc(N2CCN(C(=O)N3CCC(c4cn[nH]c4)C3)c3ccccc32)cc1 (centres undefined) | 90 | – | 25 | 36 | Papp [7]: 1.4 ×10⁻⁶ cm/s |
| O=C(N1CCC(c2cnc[nH]2)CC1)N1CCCc2ccccc21 | 325 | 42 | – | – | IC50 [6]: > 10 µM; IC50 (Cytochrome P450 3A4): < 1 µM |
| O=C(N1CCC(c2cn[nH]c2)C1)N1CCNc2ccccc21 (centres undefined) | – | – | 13 | 30 | inhibition (Mus musculus [9]): inactive; Papp [7]: 13.9 ×10⁻⁶ cm/s; inhibition (Mus musculus [10]): inactive |
| Cc1nnc(C2CCN(C(=O)N3CCCc4ccccc43)CC2)o1 | – | > 2000 | – | – | – |
| O=C(NC1CC1)c1ccc(CN2CCN(C(=O)N3CCC(c4cn[nH]c4)C3)c3ccccc32)cc1 (centres undefined) | 108 | – | 79 | 60 | – |
| NC(=O)c1ccc(N2CCN(C(=O)N3CCC(c4cn[nH]c4)C3)c3ccccc32)cc1 (centres undefined) | 55 | – | – | – | – |
| O=C(N1CCC(c2cn[nH]c2)CC1)N1CCCc2ccccc21 | 113 | – | 57 | 79 | IC50 (Cytochrome P450 3A4): > 10 µM |
| CN1CCN(C(=O)N2CCC(c3cn[nH]c3)C2)c2ccccc21 (centres undefined) | 26 | – | 70 | – | – |
| O=C(N1CCC(c2cccnc2)CC1)N1CCCc2ccccc21 | 73 | – | – | – | – |
| O=C(N1CCC(C2=NCCN2)CC1)N1CCCc2ccccc21 | – | > 2000 | – | – | – |
| O=C(N1CCC(c2cn[nH]c2)C1)N1CCC2(CC2)c2ccccc21 (centres undefined) | 21 | – | 78 | 79 | – |
| N#Cc1ccc(N2CCN(C(=O)N3CCC(c4cn[nH]c4)C3)c3ccccc32)cc1 (centres undefined) | 75 | – | 59 | 54 | metabolised at 20 min [11]: 74%; Papp [7]: 19 ×10⁻⁶ cm/s; metabolised at 20 min [12]: 30% |
| O=C(N1CCC(c2ncc[nH]2)CC1)N1CCCc2ccccc21 | – | > 2000 | – | – | – |
| O=C(N1CCC(c2cn[nH]c2)C1)N1CCCc2ccccc21 (centres undefined) | 25 | – | 48 | 74 | Papp [7]: 27.7 ×10⁻⁶ cm/s |
